According to patent publication US20250154152A1, “INHIBITORS OF NAEGLERIA FOWLERI” (Wisconsin Alumni Research Foundation, priority 2023, published 2025):
Values belong to the compound of their own block, whether it stands above or below them.

Tested on: N. fowleri strain Nf69 (ATCC 30215) trophozoites
Assay: Determination of EC50 values against Naegleria fowleri (growth inhibition, CellTiter Glo, 48 h)
Format: cell-based
Conditions: ATCC30215, N. fowleri Nf69 trophozoites, 48 h culture, 37° C., CellTiter Glo luminescence, read-out: EC50 uM against N. fowleri
Experimental: N. fowleri strain Nf69 (ATCC 30215) trophozoites were cultured axenically. Amoeba were seeded at […] in 100 μL of the indicated medium in white TC-treated 96-well plates (Thermo Scientific Nunc Microwell 136101). Cells were seeded into Nelson's Complete Media (NCM, 0.17% liver infusion broth (BD Difco, Franklin Lakes, NJ), 0.17% glucose, 0.012% sodium chloride, 0.0136% potassium phosphate monobasic, 0.0142% sodium phosphate dibasic, 0.0004% calcium chloride, 0.0002% magnesium sulfate, 10% heat-inactivated fetal bovine serum (FBS), 1% penicillin-streptomycin) at 37° C. in 96-well tissue culture plates. Vehicle or compound at concentrations initially ranging from 20 to 0.375 μM were added to cells, followed by culture for 48 h (37° C., 5% CO2). Plates were equilibrated to rt for 15 min and CellTiter Glo reagent was added followed by orbital shaking for 2 min. After an additional incubation (rt, 10 min), luminescence was scored on a BioTek Synergy H1 microplate reader. Luminescence values were used to calculate percent cell growth inhibition (based on controls) for each concentration of compound tested. Averages of triplicates were calculated and fit to dose-response curves for the determination of EC50 values, using Prism 9.0 (GraphPad Software, San Diego, CA). […] Other controls included media alone, cells and media, and vehicle and media. For very potent compounds, concentration of reagent in the dose-response assays were reduced to provide an appropriate range for EC50 value resolution.
Compounds of the present technology were tested for growth inhibition of N. fowleri per General Procedure 13, above.

SMILES: CN1CCN(C)[C@H]2c3nc4ccccc4c(=O)n3CC[C@H]21 (racemic) [cis-5y, (±)-(4aR,13bR)-1,4-dimethyl-1,2,3,4,4a,5,6,13b-octahydro-8H-pyrazino[2′,3′:3,4]pyrido[2,1-b]quinazolin-8-one]
EC50: > 10 µM

SMILES: CCN1CCC[C@H]2c3nc4ccccc4c(=O)n3CC[C@H]21 (racemic) [cis-5z, (±)-(4aR,13bR)-4-ethyl-1,2,3,4,4a,5,6,13b-octahydro-8H-[1,6]naphthyridino[5,6-b]quinazolin-8-one]
EC50: > 10 µM

EC50: > 10 µM
SMILES: Cc1ccc(-c2ccc3nc4n(c(=O)c3c2)CC[C@@H]2[C@H]4CCCN2C)cn1 (racemic) [cis-9a]

EC50: 1 to 10 µM
SMILES: CN1CCC[C@H]2c3nc4cc(-c5ccccc5)c(Cl)cc4c(=O)n3CC[C@H]21 (racemic) [cis-9b, (±)-(4aR,13bR)-10-chloro-4-methyl-11-phenyl-1,2,3,4,4a,5,6,13b-octahydro-8H-[1,6]naphthyridino[5,6-b]quinazolin-8-one]

SMILES: COc1ccc2c(=O)n3c(nc2c1)[C@@H]1CCCN(C)[C@@H]1CC3 (racemic) [cis-50, (±)-(4aR,13bR)-11-methoxy-4-methyl-1,2,3,4,4a,5,6,13b-octahydro-8H-[1,6]naphthyridino[5,6-b]quinazolin-8-one]
EC50: 1 to 10 µM

SMILES: CN1CCC[C@@H]2c3nc4ccccc4c(=O)n3CC[C@H]21 (racemic) [trans-5a, (±)-(4aR,13bS)-4-methyl-1,2,3,4,4a,5,6,13b-octahydro-8H-[1,6]naphthyridino[5,6-b]quinazolin-8-one]
EC50: > 10 µM

EC50: > 10 µM
SMILES: O=c1c2ccccc2nc2n1CC[C@@H]1[C@@H]2CCCN1Cc1ccccc1 (racemic) [trans-5aa, (±)-(4aR,13bS)-4-benzyl-1,2,3,4,4a,5,6,13b-octahydro-8H-[1,6]naphthyridino[5,6-b]quinazolin-8-one]

SMILES: Cc1cccc2nc3n(c(=O)c12)CC[C@@H]1[C@@H]3CCCN1C (racemic) [trans-5b, (±)-(4aR,13bS)-4,9-dimethyl-1,2,3,4,4a,5,6,13b-octahydro-8H-[1,6]naphthyridino[5,6-b]quinazolin-8-one]
EC50: > 10 µM

SMILES: CN1CCC[C@@H]2c3nc4cccc(Cl)c4c(=O)n3CC[C@H]21 (racemic) [trans-5c, (±)-(4aR,13bS)-9-chloro-4-methyl-1,2,3,4,4a,5,6,13b-octahydro-8H-[1,6]naphthyridino[5,6-b]quinazolin-8-one]
EC50: > 10 µM

SMILES: CN1CCC[C@@H]2c3nc4ccc(Cl)cc4c(=O)n3CC[C@H]21 (racemic) [trans-5d, (±)-(4aR,13bS)-10-chloro-4-methyl-1,2,3,4,4a,5,6,13b-octahydro-8H-[1,6]naphthyridino[5,6-b]quinazolin-8-one]
EC50: 0.1 to 1 µM

SMILES: CN1CCC[C@@H]2c3nc4ccc(Br)cc4c(=O)n3CC[C@H]21 (racemic) [trans-5e, (±)-(4aR,13bS)-10-bromo-4-methyl-1,2,3,4,4a,5,6,13b-octahydro-8H-[1,6]naphthyridino[5,6-b]quinazolin-8-one]
EC50: 1 to 10 µM

SMILES: CN1CCC[C@@H]2c3nc4ccc(F)cc4c(=O)n3CC[C@H]21 (racemic) [trans-5f, (±)-(4aR,13bS)-10-fluoro-4-methyl-1,2,3,4,4a,5,6,13b-octahydro-8H-[1,6]naphthyridino[5,6-b]quinazolin-8-one]
EC50: > 10 µM

SMILES: COc1ccc2nc3n(c(=O)c2c1)CC[C@@H]1[C@@H]3CCCN1C (racemic) [trans-5g, (±)-(4aR,13bS)-10-methoxy-4-methyl-1,2,3,4,4a,5,6,13b-octahydro-8H-[1,6]naphthyridino[5,6-b]quinazolin-8-one]
EC50: 1 to 10 µM

SMILES: COc1cc2nc3n(c(=O)c2cc1Cl)CC[C@@H]1[C@@H]3CCCN1C (racemic) [trans-5gg, (±)-(4aR,13bS)-10-chloro-11-methoxy-4-methyl-1,2,3,4,4a,5,6,13b-octahydro-8H-[1,6]naphthyridino[5,6-b]quinazolin-8-one]
EC50: 0.1 to 1 µM

SMILES: Cc1ccc2nc3n(c(=O)c2c1)CC[C@@H]1[C@@H]3CCCN1C (racemic) [trans-5h, (±)-(4aR,13bS)-4,10-dimethyl-1,2,3,4,4a,5,6,13b-octahydro-8H-[1,6]naphthyridino[5,6-b]quinazolin-8-one]
EC50: 1 to 10 µM

SMILES: CN1CCC[C@@H]2c3nc4ccc(C#N)cc4c(=O)n3CC[C@H]21 (racemic) [trans-5i, (±)-(4aR,13bS)-4-methyl-8-oxo-2,3,4,4a,5,6,8,13b-octahydro-1H-[1,6]naphthyridino[5,6-b]quinazoline-10-carbonitrile]
EC50: 0.1 to 1 µM

SMILES: CN1CCC[C@@H]2c3nc4ccc(C(F)(F)F)cc4c(=O)n3CC[C@H]21 (racemic) [trans-5j, (±)-(4aR,13bS)-4-methyl-10-(trifluoromethyl)-1,2,3,4,4a,5,6,13b-octahydro-8H-[1,6]naphthyridino[5,6-b]quinazolin-8-one]
EC50: 1 to 10 µM

SMILES: CN1CCC[C@@H]2c3nc4cc(Cl)ccc4c(=O)n3CC[C@H]21 (racemic) [trans-5k, (±)-(4aR,13bS)-11-chloro-4-methyl-1,2,3,4,4a,5,6,13b-octahydro-8H-[1,6]naphthyridino[5,6-b]quinazolin-8-one]
EC50: 1 to 10 µM

SMILES: CN1CCC[C@@H]2c3nc4cc(Br)ccc4c(=O)n3CC[C@H]21 (racemic) [trans-5l, (±)-(4aR,13bS)-11-bromo-4-methyl-1,2,3,4,4a,5,6,13b-octahydro-8H-[1,6]naphthyridino[5,6-b]quinazolin-8-one]
EC50: 1 to 10 µM

SMILES: CN1CCC[C@@H]2c3nc4cc(F)ccc4c(=O)n3CC[C@H]21 (racemic) [trans-5m, (±)-(4aR,13bS)-11-fluoro-4-methyl-1,2,3,4,4a,5,6,13b-octahydro-8H-[1,6]naphthyridino[5,6-b]quinazolin-8-one]
EC50: > 10 µM

SMILES: CN1CCC[C@@H]2c3nc4cc(C(F)(F)F)ccc4c(=O)n3CC[C@H]21 (racemic) [trans-5n, (±)-(4aR,13bS)-4-methyl-11-(trifluoromethyl)-1,2,3,4,4a,5,6,13b-octahydro-8H-[1,6]naphthyridino[5,6-b]quinazolin-8-one]
EC50: 0.1 to 1 µM

SMILES: CN1CCC[C@@H]2c3nc4cnccc4c(=O)n3CC[C@H]21 (racemic) [trans-5p, (±)-(4aR,13bS)-4-methyl-1,2,3,4,4a,5,6,13b-octahydro-8H-pyrido[3′,4′:4,5]pyrimido[2,1-f][1,6]naphthyridin-8-one]
EC50: > 10 µM

SMILES: CN1CCC[C@@H]2c3nc4cc(Cl)c(Cl)cc4c(=O)n3CC[C@H]21 (racemic) [trans-5q, (±)-(4aR,13bS)-10,11-dichloro-4-methyl-1,2,3,4,4a,5,6,13b-octahydro-8H-[1,6]naphthyridino[5,6-b]quinazolin-8-one]
EC50: 0.1 to 1 µM

SMILES: COc1cc2nc3n(c(=O)c2cc1OC)CC[C@@H]1[C@@H]3CCCN1C (racemic) [trans-5r, (±)-(4aR,13bS)-10,11-dimethoxy-4-methyl-1,2,3,4,4a,5,6,13b-octahydro-8H-[1,6]naphthyridino[5,6-b]quinazolin-8-one]
EC50: > 10 µM

EC50: 0.1 to 1 µM
SMILES: CN1CCC[C@@H]2c3nc4cc(Cl)c(C(F)(F)F)cc4c(=O)n3CC[C@H]21 (racemic) [trans-5s, (±)-(4aR,13bS)-11-chloro-4-methyl-10-(trifluoromethyl)-1,2,3,4,4a,5,6,13b-octahydro-8H-[1,6]naphthyridino[5,6-b]quinazolin-8-one]

SMILES: COc1cc(Cl)cc2c(=O)n3c(nc12)[C@H]1CCCN(C)[C@@H]1CC3 (racemic) [trans-5t, (±)-(4aR,13bS)-10-chloro-12-methoxy-4-methyl-1,2,3,4,4a,5,6,13b-octahydro-8H-[1,6]naphthyridino[5,6-b]quinazolin-8-one]
EC50: > 10 µM

SMILES: COc1cccc2c(=O)n3c(nc12)[C@H]1CCCN(C)[C@@H]1CC3 (racemic) [trans-5u, (±)-(4aR,13bS)-12-methoxy-4-methyl-1,2,3,4,4a,5,6,13b-octahydro-8H-[1,6]naphthyridino[5,6-b]quinazolin-8-one]
EC50: > 10 µM

SMILES: CN1CCO[C@@H]2c3nc4ccccc4c(=O)n3CC[C@H]21 (racemic) [trans-5v, (±)-(4aR,13bS)-4-methyl-3,4,4a,5,6,13b-hexahydro-[1,4]oxazino[2′,3′:3,4]pyrido[2,1-b]quinazolin-8(2H)-one]
EC50: > 10 µM

SMILES: CN1CCO[C@@H]2c3nc4ccc(Cl)cc4c(=O)n3CC[C@H]21 (racemic) [trans-5w, (±)-(4aR,13bS)-10-chloro-4-methyl-3,4,4a,5,6,13b-hexahydro-[1,4]oxazino[2′,3′:3,4]pyrido[2,1-b]quinazolin-8(2H)-one]
EC50: > 10 µM

SMILES: CN1CCO[C@@H]2c3nc4ccc(C(F)(F)F)cc4c(=O)n3CC[C@H]21 (racemic) [trans-5x, (±)-(4aR,13bS)-4-methyl-10-(trifluoromethyl)-3,4,4a,5,6,13b-hexahydro-[1,4]oxazino[2′,3′:3,4]pyrido[2,1-b]quinazolin-8(2H)-one]
EC50: > 10 µM

SMILES: CCN1CCC[C@@H]2c3nc4ccccc4c(=O)n3CC[C@H]21 (racemic) [trans-5z, (±)-(4aR,13bS)-4-ethyl-1,2,3,4,4a,5,6,13b-octahydro-8H-[1,6]naphthyridino[5,6-b]quinazolin-8-one]
EC50: > 10 µM
